Data as given in US20120101078A1, “AMIDE DERIVATIVES AS NEUROPEPTIDE Y5 RECEPTOR LIGANDS” (H. Lundbrck A/S, priority 2009, published 2012).
One block for each compound: values may come before it.

Legend:
NPY Y5 receptor [1] = biological target: T1, NPY Y5 receptor (Homo sapiens, UniProt Q15761); assay: Radioligand (125I-PYY) binding to membrane suspensions, cloned human NPY Y5 receptor; parameters: expressed in transfected cells; host or cells: LM(tk-) cells (typically); details: 125I-PYY competition, membranes of transfected LM(tk-) cells; read-out: Ki, binding affinity of selected compounds
T1 sequence (Q15761 1-445): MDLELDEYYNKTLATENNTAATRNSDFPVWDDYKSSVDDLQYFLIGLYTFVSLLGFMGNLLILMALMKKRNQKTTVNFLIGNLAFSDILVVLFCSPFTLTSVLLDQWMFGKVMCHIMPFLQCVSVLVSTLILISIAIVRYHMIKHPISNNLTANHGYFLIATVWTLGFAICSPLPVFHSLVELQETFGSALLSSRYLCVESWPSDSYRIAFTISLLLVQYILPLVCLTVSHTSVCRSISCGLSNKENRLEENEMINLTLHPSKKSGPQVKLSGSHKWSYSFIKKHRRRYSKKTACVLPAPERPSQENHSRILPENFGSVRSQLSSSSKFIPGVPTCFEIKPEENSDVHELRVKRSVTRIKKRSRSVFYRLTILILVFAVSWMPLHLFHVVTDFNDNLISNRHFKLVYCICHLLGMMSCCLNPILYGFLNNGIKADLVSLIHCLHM
Experimental: (§1) The pharmacological properties of the compounds of the present invention were evaluated at the cloned human NPY Y5 receptor using the protocols disclosed in U.S. Pat. No. 6,124,331, the contents of which are hereby incorporated by reference. The procedures for cell culture, transient transfection and membrane harvest, which are well known in the art, are described therein
Briefly, membrane suspensions from transfected cells (typically expressed in LM(tk-) cells) and ^125I-PYY radioligand (PerkinElmer, Waltham, Mass.) were diluted in binding buffer supplemented with 0.1% bovine serum albumin to yield an optimal membrane protein concentration so that ^125I-PYY bound by membranes in the assay was less than 10% of ^125I-PYY delivered to the sample (100,000 dpm/sample=0.08 nM for competition binding assays). Test compounds were diluted to desired concentrations with supplemented binding buffer in the presence of 30% DMSO. The binding assay was performed in 96-well polypropylene microtiter plates by mixing 125I-PYY test compound (25 μL), and finally, membrane suspensions (200 μL). Final DMSO=3%. Samples were incubated in at room temperature for about 120 min. Incubations were terminated by filtration over Whatman GF/C filters (pre-coated with 1% polyethyleneimine and air-dried before use), followed by washing with ice-cold binding buffer. Filter-trapped membranes were impregnated with MeltiLex solid scintillant (Wallac, Turku, Finland) and counted for ^125I-PYY in a Wallac MicroBeta Trilux. Non-specific binding was defined by 1000 nM porcine NPY. Specific binding was typically 80%; most non-specific binding was associated with the filter. Binding data were analyzed using nonlinear regression and statistical techniques available in the GraphPAD Prism package (San Diego, Calif.).

NPY Y5 receptor [2] = biological target: T1, NPY Y5 receptor; assay: NPY Y5-dependent inhibition of forskolin-stimulated cAMP accumulation; type: cell-based; parameters: expressed in transfected cells; details: stably transfected cells, NPY then forskolin 10 uM, cAMP by HTRF
Experimental: as §1
Stably transfected cells were seeded into 96-well microtiter plates and cultured until confluent. To reduce the potential for receptor desensitization, the serum component of the media was reduced to 1.5% for 4 to 16 hours before the assay. Cells were washed in Hank's buffered saline, or HBS (150 mM NaCl, 20 mM HEPES, 1 mM CaCl2, 5 mM KCl, 1 mM MgCl2, and 10 mM glucose) supplemented with 0.1% bovine serum albumin plus 100 uM IBMX. […] The assay was then terminated and intracellular cAMP was quantified by with highthroughput time-resolved flourometry (HTRF kit from CisBio, Bedford, Mass.). The effect of the test compound on agonist (NPY) activity were analyzed using nonlinear regression and statistical techniques available in the GraphPAD Prism package (San Diego, Calif.). The compounds of Example 2a and 5b were determined to function as an antagonist at the NPY Y5 receptor.

[3] = system: Flinders Sensitive Line rats; details: chronic dosing 10 mg/kg/day, i.p.; cited from earlier work
Wistar rats = Wistar rats exposed to chronic mild stress, chronic dosing 3, 10 mg/kg/day, i.p.; cited from earlier work
Sprague Dawley rats = details: 3-30 mg/kg, p.o., acute or chronic treatment; cited from earlier work
Y5 receptor = biological target: T2, Y5 receptor (Rattus norvegicus, UniProt Q63634); details: increase elicited by i.c.v. injection of cPP(1-7), NPY(19-23),Ala31,Aib32, Gln34]; cited from earlier work
T2 construct: host or cells: animals in vivo (i.c.v. injection of Y5 agonist)
T2 sequence (Q63634 1-445): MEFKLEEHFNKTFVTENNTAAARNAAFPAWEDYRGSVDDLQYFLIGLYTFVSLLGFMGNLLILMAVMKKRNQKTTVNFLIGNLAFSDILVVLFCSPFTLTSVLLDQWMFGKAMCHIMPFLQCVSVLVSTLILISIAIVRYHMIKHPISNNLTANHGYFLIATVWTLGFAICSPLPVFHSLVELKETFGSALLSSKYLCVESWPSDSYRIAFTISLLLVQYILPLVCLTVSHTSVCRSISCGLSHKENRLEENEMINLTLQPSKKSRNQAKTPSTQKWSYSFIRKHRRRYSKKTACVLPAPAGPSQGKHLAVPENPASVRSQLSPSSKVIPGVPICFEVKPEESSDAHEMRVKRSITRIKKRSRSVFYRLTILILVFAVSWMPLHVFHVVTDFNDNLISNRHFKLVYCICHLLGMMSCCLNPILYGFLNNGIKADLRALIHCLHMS

[4] = system: Flinders Sensitive Line rats; details: chronic dosing 10 mg/kg/day, i.p.; cited from earlier work; remark: listed apart in the source

Ki (NPY Y5 receptor [1]): 720 nM
Compound: O=C1CCCN1[C@H]1CC[C@H](C(=O)Nc2ccc(-c3cc(F)cc(F)c3)cn2)CC1 [Example 1a, trans-4-(2-Oxo-pyrrolidin-1-yl)-cyclohexanecarboxylic acid [5-(3,5-difluoro-phenyl)-pyridin-2-yl]-amide]

Ki (NPY Y5 receptor [1]): 8 nM
function at the NPY Y5 receptor (effect on NPY agonist activity) (NPY Y5 receptor [2]): antagonist
Compound: O=C1OCCN1[C@H]1CC[C@@H](C(=O)Nc2ccc(-c3cc(F)cc(F)c3)cn2)CC1 [Example 2a, cis-4-(2-Oxo-oxazolidin-3-yl)-cyclohexanecarboxylic acid [5-(3,5-difluoro-phenyl)-pyridin-2-yl]-amide]

Ki (NPY Y5 receptor [1]): 6 nM
Compound: O=C1OCCCN1[C@H]1CC[C@@H](C(=O)Nc2ccc(-c3cc(F)cc(F)c3)cn2)CC1 [Example 3a, cis-4-(2-Oxo-perhydro-1,3-oxazin-3-yl)-cyclohexanecarboxylic acid [5-(3,5-difluoro-phenyl)-pyridin-2-yl]-amide]

Ki (NPY Y5 receptor [1]): 9 nM
Compound: O=C1NCCCN1[C@H]1CC[C@@H](C(=O)Nc2ccc(-c3cc(F)cc(F)c3)cn2)CC1 [Example 4a, cis-4-(2-Oxo-tetrahydro-pyrimidin-1-yl)-cyclohexanecarboxylic acid [5-(3,5-difluoro-phenyl)-pyridin-2-yl]-amide]

Ki (NPY Y5 receptor [1]): 12 nM
Compound: CN1CCCN([C@H]2CC[C@@H](C(=O)Nc3ccc(-c4cc(F)cc(F)c4)cn3)CC2)C1=O [Example 5a, cis-4-(3-Methyl-2-oxotetrahydro-pyrimidin-1-yl)-cyclohexanecarboxylic acid [5-(3,5-difluoro-phenyl)-pyridin-2-yl]-amide]

Ki (NPY Y5 receptor [1]): 3.8 nM
function at the NPY Y5 receptor (effect on NPY agonist activity) (NPY Y5 receptor [2]): antagonist
Compound: CN1CCN([C@H]2CC[C@@H](C(=O)Nc3ccc(-c4cc(F)cc(F)c4)cn3)CC2)C1=O [Example 5b, cis-4-(3-Methyl-2-oxo-imidazolidin-1-yl)-cyclohexanecarboxylic acid [5-(3,5-difluoro-phenyl)-pridin-2-yl]-amide]

Ki (NPY Y5 receptor [1]): 8 nM
Compound: O=C1COCCN1[C@H]1CC[C@@H](C(=O)Nc2ccc(-c3cc(F)cc(F)c3)cn2)CC1 [Example 6a, cis-4-(3-Oxo-morpholin-4-yl)-cyclohexanecarboxylic acid [5-(3,5-difluoro-phenyl)-pyridin-2-yl]-amide]

Compound: CS(=O)(=O)NCC1CCC(Nc2nc3c(s2)CCSc2ccccc2-3)CC1 (stereo not drawn) [Lu AA33810]
effect in forced swim test [3]: antidepressant-like effects
effect on stress-induced decrease in sucrose consumption (Wistar rats): antidepressant-like activity
effect in social interaction test (Sprague Dawley rats): anxiolytic-like effects
effect on increase in plasma ACTH (Y5 receptor): attenuated increases
effect on increase in plasma cortisol (Y5 receptor): attenuated increases
effect in social interaction test [4]: anxiolytic-like effects
